Holding throughout (assay): NCI-60 cell line screen, 48 h
In assay [1] the test system is SF-268.
Assay [2] has as its system CAKI-1.
Assay [3] relates to OVCAR-8.
Assay [4] relates to K562.
In assay [5] the test system is NCI-H522.
Assay [6] has as its system SNB-19.
Assay [7] has as its system HCT-116.
Assay [8] concerns UO-31.
The test system of assay [9] is HL-60.
Assay [10] has as its system HOP-92.
Assay [11] has as its system HCC 2998.
Assay [12] concerns HOP-62.
The subject of assay [13] is SN12C.
The subject of assay [14] is ACHN.
The subject of assay [15] is IGROV-1.
Assay [16] has as its system SF-539.
In assay [17] the test system is OVCAR-5.
Assay [18] has as its system SR.
The test system of assay [19] is OVCAR-4.
The test system of assay [20] is NCI/ADR-RES.

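Tested at 5 concentrations; 48 h exposure; 96-well plates; endpoints linearly interpolated, else capped at highest concentration. At the GI50, growth is halved.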 Calls of active or inactive are those of the source. Rule as the data show it: active = GI50 up to about 1.1 µM and inactive = higher.

For `c1ccc(N/N=C2\NN=C(c3ccccc3)CS2)cc1`, the GI50 in [1] was 5.18 µM (inactive); in assay [2], 2.55 µM (inactive); in assay [3] it was 5.27 µM (inactive); in assay [4], 3.34 µM (inactive); in assay [5], 3.49 µM (inactive); in assay [6], 19.3 µM (inactive). Further, the GI50 is 3.8 µM (inactive) in assay [7]; 12.9 µM (inactive) in assay [8]; 3.58 µM (inactive) in assay [9]; 11.3 µM (inactive) in assay [10]; 4.74 µM (inactive) in assay [11]; 22.3 µM (inactive) in assay [12]. Also, the GI50 in assay [13] was > 10 µM (inactive); in assay [14] it was 4.38 µM (inactive); in assay [15], 15 µM (inactive); in assay [16], 18.1 µM (inactive); in [17], 14.7 µM (inactive); in assay [18], 4.3 µM (inactive).

On to `CC1(O)C=CC(=O)C=C1`, for which the GI50 is 13.9 µM (inactive) in assay [1]; 30.8 µM (inactive) in assay [2]; 25.3 µM (inactive) in assay [3]; 33.5 µM (inactive) in [4]; 18.6 µM (inactive) in [5]; 25.7 µM (inactive) in assay [6]. The GI50 is 60.1 µM (inactive) in assay [7]; 36.6 µM (inactive) in assay [8]; 16.4 µM (inactive) in assay [9]; > 100 µM (inactive) in [10]; > 71.6 µM (inactive) in assay [11]; > 52.6 µM (inactive) in assay [12]. In addition, the GI50 is 52.7 µM (inactive) in [13]; 27.5 µM (inactive) in assay [14]; 26.8 µM (inactive) in assay [15]; 23.5 µM (inactive) in [16]; 98.2 µM (inactive) in [17]; 40.9 µM (inactive) in assay [19]. In assay [18], the GI50 was 16.2 µM (inactive).

Take `N#C/C(=C/c1ccco1)C(=O)c1ccccc1`: the GI50 in assay [1], in [2], in assay [3], in assay [4], in [5] and in assay [7] was > 100 µM (inactive) in each case. Besides, the GI50 in assay [8], in assay [9], in [10], in [11], in assay [13] and in [14] was > 100 µM (inactive) each time. The GI50 in assay [15], in assay [16], in assay [17], in [19] and in [18] was > 100 µM (inactive) in each case.

Take `COC1O[C@H]2CCN(C(=O)OCc3ccccc3)[C@H]2[C@H]1OCc1ccccc1` (some centres not stated): the GI50 was 50.2 µM (inactive) in assay [1]; 40.3 µM (inactive) in assay [2]; 69.7 µM (inactive) in assay [3]; 30.5 µM (inactive) in [4]; 37.6 µM (inactive) in assay [5]; 89.3 µM (inactive) in assay [6]. In addition, the GI50 in [7] was 46.6 µM (inactive); in [8] it was 29.2 µM (inactive); in assay [9], 28.4 µM (inactive); in assay [10] it was 26.6 µM (inactive); in assay [11] it was 47.6 µM (inactive); in assay [12], > 100 µM (inactive). The GI50 in [13] is > 100 µM (inactive); in assay [14] it was 39.6 µM (inactive); in assay [15], 49.5 µM (inactive); in assay [16], > 100 µM (inactive); in [17], > 100 µM (inactive); in [19] it was > 62.4 µM (inactive). In addition, the GI50 in assay [18] was 30.3 µM (inactive).

For the compound `CN(C)CN1C(=O)/C(=N\n2c(S)nnc2-c2ccncc2)c2ccccc21`, the GI50 in assay [1] was 57.5 µM (inactive); in assay [2], 69.3 µM (inactive); in [3], 23.7 µM (inactive); in [4], 26.5 µM (inactive); in assay [5] it was 16.6 µM (inactive); in assay [6], 54.5 µM (inactive). In addition, the GI50 was 34 µM (inactive) in assay [7]; 29.5 µM (inactive) in [8]; 11.7 µM (inactive) in assay [9]; 76.9 µM (inactive) in assay [10]; 24.8 µM (inactive) in assay [12]; 35.2 µM (inactive) in [13]. Also, the GI50 in [14] is 48.1 µM (inactive); in assay [15], 38.5 µM (inactive); in assay [16], 23.5 µM (inactive); in assay [20], 41.9 µM (inactive); in assay [17], > 100 µM (inactive); in assay [19], 17.1 µM (inactive).

In the case of `COc1ccc(/C=C(\C2=NC(=O)CS2)c2nc3ccccc3[nH]2)cc1`, the GI50 is > 100 µM (inactive) in assay [1]; > 100 µM (inactive) in assay [2]; 46.8 µM (inactive) in assay [3]; 78.2 µM (inactive) in [4]; 16.5 µM (inactive) in assay [5]; > 100 µM (inactive) in [6]. Further, the GI50 in assay [7] is 85.1 µM (inactive); in assay [8], 32.7 µM (inactive); in assay [9], > 100 µM (inactive); in assay [10] it was 80.2 µM (inactive); in assay [11] it was < 0.01 µM (active); in [12], 32.1 µM (inactive). Also, the GI50 in [13] was 52.4 µM (inactive); in [14], 37.6 µM (inactive); in assay [15] it was 52.1 µM (inactive); in assay [16] it was 4.6 µM (inactive); in assay [17], 41.8 µM (inactive); in [19], > 100 µM (inactive). The GI50 in assay [18] was > 100 µM (inactive).

Regarding `COC(=O)C#CCC1CCCC1C1SCCS1` (configuration not stated), the GI50 in assay [1] is > 100 µM (inactive); in assay [2], > 100 µM (inactive); in [3], 61.1 µM (inactive); in assay [4], 43.5 µM (inactive); in [5], 28 µM (inactive); in assay [6], 91.4 µM (inactive). In addition, the GI50 in [7] is > 100 µM (inactive); in assay [8], > 100 µM (inactive); in assay [9] it was 38.1 µM (inactive); in [10], > 100 µM (inactive); in assay [11], > 100 µM (inactive); in assay [12], > 100 µM (inactive). The GI50 in assay [13] is 37.5 µM (inactive); in assay [14], 34 µM (inactive); in assay [15], > 100 µM (inactive); in [16], 99.1 µM (inactive); in assay [17], > 100 µM (inactive); in assay [19] it was 71.4 µM (inactive). Further, in [18], the GI50 was 15.8 µM (inactive).

With `CC(=O)C1C(=O)C(=O)N(c2ccc(Cl)cc2C)C1=O` (configuration not stated), the GI50 in assay [1], in [3], in assay [4], in assay [5], in assay [6] and in assay [7] was > 100 µM (inactive) throughout. Besides, the GI50 in [8], in assay [9], in assay [10], in assay [11], in [12] and in assay [13] was > 100 µM (inactive) in each case. For the same compound, the GI50 in assay [14], in [15], in assay [16], in assay [17], in assay [19] and in [18] was > 100 µM (inactive) throughout.

Values taken from ChEMBL document CHEMBL1201862, “PubChem BioAssay data set” (2004).
